Data: US20230002357A1, “7-PYRIMIDINE-2-YL-OXY-INDAZOLE DERIVATIVES AND THEIR USE AS HERBICIDES” (SYNGENTA CROP PROTECTION AG, priority 2019, published 2023)

Columns and labels:
Format in all cases: in vivo
Settings in all cases: 250 g/ha, evaluated after 13 days
ABUTH [1] = experiment: Pre-emergence Test, glasshouse, ABUTH
Procedure, shortened: (§1)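 Spray: 250 g/ha (unless stated), acetone/water 50:50 + 0.5% Tween 20; pre-em 1 d, post-em 8 d after sowing. Glasshouse 24/16 °C, 14 h light, 65% RH, watered twice daily. Damage read at 13 d on 5-point scale.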

Setaria faberi (SETFA) [2] = experiment: Post-emergence Test, glasshouse, SETFA
Procedure, shortened: as §1

[3] = system: Amaranthus retoflexus (AMARE); experiment: Post-emergence Test, glasshouse, AMARE
Procedure, shortened: as §1

IPOHE [4] = experiment: Post-emergence Test, glasshouse, IPOHE
Procedure, shortened: as §1

ABUTH [5] = experiment: Post-emergence Test, glasshouse, ABUTH
Procedure, shortened: as §1

Setaria faberi (SETFA) [6] = experiment: Pre-emergence Test, glasshouse, SETFA
Procedure, shortened: as §1

[7] = system: Echinochloa crus-galli (ECHCG); experiment: Pre-emergence Test, glasshouse, ECHCG
Procedure, shortened: as §1

IPOHE [8] = experiment: Pre-emergence Test, glasshouse, IPOHE
Procedure, shortened: as §1

[9] = system: Echinochloa crus-galli (ECHCG); experiment: Post-emergence Test, glasshouse, ECHCG
Procedure, shortened: as §1

[10] = system: Amaranthus retoflexus (AMARE); experiment: Pre-emergence Test, glasshouse, AMARE
Procedure, shortened: as §1

Compound	percentage damage caused to the plant, five-point scale, ABUTH (ABUTH [1])	percentage damage caused to the plant, five-point scale, SETFA (Setaria faberi (SETFA) [2])	percentage damage caused to the plant, five-point scale, AMARE [3]	percentage damage caused to the plant, five-point scale, IPOHE (IPOHE [4])	percentage damage caused to the plant, five-point scale, ABUTH (ABUTH [5])	percentage damage caused to the plant, five-point scale, SETFA (Setaria faberi (SETFA) [6])	percentage damage caused to the plant, five-point scale, ECHCG [7]	percentage damage caused to the plant, five-point scale, IPOHE (IPOHE [8])	percentage damage caused to the plant, five-point scale, ECHCG [9]	percentage damage caused to the plant, five-point scale, AMARE [10]
FCCCCn1nc(Cl)c2cccc(Oc3ncc(Cl)cn3)c21 [Compound 1.039]	3 (3=41-60%)	4 (4=61-80%)	5 (5=81-100%)	4 (4=61-80%)	4 (4=61-80%)	5 (5=81-100%)	5 (5=81-100%)	1 (1=0-20%)	4 (4=61-80%)	5 (5=81-100%)
FC(F)CCCn1nc(Cl)c2cccc(Oc3ncc(Cl)cn3)c21 [Compound 1.040]	4 (4=61-80%)	4 (4=61-80%)	5 (5=81-100%)	5 (5=81-100%)	4 (4=61-80%)	5 (5=81-100%)	5 (5=81-100%)	2 (2=21-40%)	5 (5=81-100%)	5 (5=81-100%)
N#Cc1ccc2c(Cl)nn(CCCC(F)(F)F)c2c1Oc1ncc(Cl)cn1 [Compound 1.041, 3-chloro-7-(5-chloropyrimidin-2-yl)oxy-1-(4,4,4-trifluorobutyl)indazole-6-carbonitrile]	1 (1=0-20%)	1 (1=0-20%)	1 (1=0-20%)	1 (1=0-20%)	1 (1=0-20%)	1 (1=0-20%)	1 (1=0-20%)	1 (1=0-20%)	1 (1=0-20%)	1 (1=0-20%)
FC(F)(F)CCn1ncc2cccc(Oc3ncc(Cl)cn3)c21 [Compound 1.042]	4 (4=61-80%)	4 (4=61-80%)	4 (4=61-80%)	2 (2=21-40%)	4 (4=61-80%)	5 (5=81-100%)	5 (5=81-100%)	1 (1=0-20%)	4 (4=61-80%)	5 (5=81-100%)
Cc1ccc2c(Cl)nn(CCCC(F)(F)F)c2c1Oc1ncc(Cl)cn1 [Compound 1.043, 3-chloro-7-(5-chloropyrimidin-2-yl)oxy-6-methyl-1-(4,4,4-trifluorobutyl)indazole]	1 (1=0-20%)	3 (3=41-60%)	4 (4=61-80%)	4 (4=61-80%)	3 (3=41-60%)	4 (4=61-80%)	3 (3=41-60%)	1 (1=0-20%)	3 (3=41-60%)	5 (5=81-100%)
Cc1ccc2cnn(CCCC(F)(F)F)c2c1Oc1ncc(Cl)cn1 [Compound 1.044]	1 (1=0-20%)	1 (1=0-20%)	1 (1=0-20%)	1 (1=0-20%)	1 (1=0-20%)	3 (3=41-60%)	3 (3=41-60%)	1 (1=0-20%)	1 (1=0-20%)	2 (2=21-40%)
N#Cc1ccc2cnn(CCCC(F)(F)F)c2c1Oc1ncc(Cl)cn1 [Compound 1.046]	2 (2=21-40%)	1 (1=0-20%)	2 (2=21-40%)	1 (1=0-20%)	2 (2=21-40%)	1 (1=0-20%)	1 (1=0-20%)	1 (1=0-20%)	1 (1=0-20%)	1 (1=0-20%)
Fc1cnc(Oc2cccc3c(Cl)nn(CCCC(F)(F)F)c23)nc1 [Compound 1.047]	5 (5=81-100%)	4 (4=61-80%)	5 (5=81-100%)	5 (5=81-100%)	5 (5=81-100%)	5 (5=81-100%)	5 (5=81-100%)	3 (3=41-60%)	5 (5=81-100%)	5 (5=81-100%)
COc1cnc(Oc2cccc3c(Cl)nn(CCCC(F)(F)F)c23)nc1 [Compound 1.048]	2 (2=21-40%)	3 (3=41-60%)	5 (5=81-100%)	4 (4=61-80%)	4 (4=61-80%)	5 (5=81-100%)	4 (4=61-80%)	1 (1=0-20%)	3 (3=41-60%)	4 (4=61-80%)
Cc1cnc(Oc2cccc3c(Cl)nn(CCCC(F)(F)F)c23)nc1 [Compound 1.049]	3 (3=41-60%)	4 (4=61-80%)	4 (4=61-80%)	3 (3=41-60%)	5 (5=81-100%)	5 (5=81-100%)	5 (5=81-100%)	1 (1=0-20%)	5 (5=81-100%)	5 (5=81-100%)
FC(F)(F)CCCn1nnc2cc(Cl)cc(Oc3ncc(Cl)cn3)c21 [Compound 1.050]	1 (1=0-20%)	1 (1=0-20%)	5 (5=81-100%)	3 (3=41-60%)	2 (2=21-40%)	1 (1=0-20%)	1 (1=0-20%)	1 (1=0-20%)	1 (1=0-20%)	1 (1=0-20%)
FC(F)OCCn1nc(Cl)c2cccc(Oc3ncc(Cl)cn3)c21 [Compound 1.051]	3 (3=41-60%)	4 (4=61-80%)	5 (5=81-100%)	3 (3=41-60%)	4 (4=61-80%)	5 (5=81-100%)	4 (4=61-80%)	2 (2=21-40%)	4 (4=61-80%)	5 (5=81-100%)
FC(F)(F)OCCn1nc(Cl)c2cccc(Oc3ncc(Cl)cn3)c21 [Compound 1.052]	3 (3=41-60%)	3 (3=41-60%)	5 (5=81-100%)	3 (3=41-60%)	5 (5=81-100%)	5 (5=81-100%)	4 (4=61-80%)	1 (1=0-20%)	4 (4=61-80%)	5 (5=81-100%)
